Results as given in the NIST ThermoML archive (doi:10.1016/j.jct.2008.11.008).
Numbers after ± are expanded uncertainties.

assay: molar enthalpy of vaporization or sublimation; settings: 298.15 K; Liquid; Calvet microcalorimetry

molar enthalpy	SMILES
61.8 ± 2.6 kJ/mol	COc1ccccc1Br [1-bromo-2-methoxybenzene]
58 ± 2.4 kJ/mol	COc1cccc(Br)c1 [1-bromo-3-methoxybenzene]
58.3 ± 2.4 kJ/mol	COc1ccc(Br)cc1 [1-bromo-4-methoxybenzene]
